Legend:
human MR = target: T1, human MR (Homo sapiens, UniProt P08235); experiment: Mineralocorticoid Receptor Binding Assay ([3H]-aldosterone); settings: [3H]-aldosterone binding, human MR expressed in Sf9 cells; read-out: MR Ki
T1 construct: The full length human MR gene is cloned from a human kidney or human brain cDNA library; His tag from the pAcHLT vector (own knowledge); made in house; host or cells: Sf9 insect cells (baculovirus, pAcHLT transfer vector)
T1 sequence (P08235 1-984): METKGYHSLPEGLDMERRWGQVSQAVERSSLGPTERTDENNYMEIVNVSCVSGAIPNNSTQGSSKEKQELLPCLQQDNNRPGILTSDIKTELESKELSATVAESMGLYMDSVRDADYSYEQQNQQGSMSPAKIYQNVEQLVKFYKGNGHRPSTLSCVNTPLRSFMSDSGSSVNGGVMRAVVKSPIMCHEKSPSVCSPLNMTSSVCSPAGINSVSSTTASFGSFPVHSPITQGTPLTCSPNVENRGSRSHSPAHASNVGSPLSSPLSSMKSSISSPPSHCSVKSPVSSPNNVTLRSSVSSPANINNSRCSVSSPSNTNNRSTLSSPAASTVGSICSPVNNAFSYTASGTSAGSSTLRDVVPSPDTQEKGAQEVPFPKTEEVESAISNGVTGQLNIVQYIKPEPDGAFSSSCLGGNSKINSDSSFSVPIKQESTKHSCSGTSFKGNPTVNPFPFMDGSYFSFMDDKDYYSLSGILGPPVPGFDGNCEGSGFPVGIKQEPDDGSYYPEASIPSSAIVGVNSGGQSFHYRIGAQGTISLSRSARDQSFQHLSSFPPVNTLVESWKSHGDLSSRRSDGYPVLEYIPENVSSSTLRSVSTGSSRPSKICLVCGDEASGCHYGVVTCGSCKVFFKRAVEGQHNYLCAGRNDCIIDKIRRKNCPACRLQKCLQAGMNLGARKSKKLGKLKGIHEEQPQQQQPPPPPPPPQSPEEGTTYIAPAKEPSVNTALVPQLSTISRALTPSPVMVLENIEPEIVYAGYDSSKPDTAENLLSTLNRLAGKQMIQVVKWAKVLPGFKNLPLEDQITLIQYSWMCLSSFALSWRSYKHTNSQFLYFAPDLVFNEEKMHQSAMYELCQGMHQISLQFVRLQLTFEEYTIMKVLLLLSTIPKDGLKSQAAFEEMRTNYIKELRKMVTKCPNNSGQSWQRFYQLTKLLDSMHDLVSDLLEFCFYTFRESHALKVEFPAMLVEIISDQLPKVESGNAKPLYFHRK
Experimental: (§1) All ligands, radioligands, solvents, and reagents employed in the binding assays are readily available from commercial sources, or can be readily synthesized by the ordinarily skilled artisan.
The full length human MR gene is cloned from a human kidney or human brain cDNA library. […] The PCR reaction is performed in a final volume of 50 μl containing about 1 μl of a 50× stock solution of polymerase; about 1 μl of a 50× stock solution of dNTP; about 5 μl of an appropriate PCR buffer; about 1 μl of each primer; about […] of a H. kidney or H. brain cDNA library; and about 36 μl of water. The reaction is allowed to denature for about 30 seconds at 95 degrees Celsius, anneal for about 30 seconds at 55 degrees Celsius, and extend for about 5 minutes at 72 degrees Celsius, the sequence being repeated for a total of about 35 cycles. […] To extract the cDNA product from the agarose gel, the QIAEX II Gel Extraction protocol (QIAGEN, Inc.) is employed according to the manufacturer's instructions. Following extraction, the MR cDNA is cloned into an appropriate cloning vector (Zero Blunt TOPO PCR Cloning Kit Invitrogen, Inc.) and a pAcHLT-baculovinis transfer vector (B.D./Pharminogen), then expressed in SF9 insect cells, essentially according to manufacturer's instructions. Sf9 cells are grown at a scale where gram quantity cell pellets are obtained for subsequent use in the MR binding assay. Harvested cell pellets are lysed by repeated freeze-thaw cycles (about 4) in a suitable lysis buffer then centrifuged at about 1×10^3 G (with the supernatant being saved for future assays).
MR binding assays are performed in a final total volume of about 250 μl containing about 20-25 μg of protein and 0.5 nM of [^3H]-aldosterone plus varying concentrations of test compound or vehicle. The assay binding buffer consists of 30 mM sodium molybdate, 30 mM of TRIS-HCl, 5 mM sodium phosphate, 5 mM sodium pyrophosphate, and about 10% glycerol, pH=7.5.
Incubations are carried out at 4 degrees Celsius with shaking for about 16 hours. 200 μl aliquots of each incubation are filtered onto Millipore HA 0.45 micron 96-well filter plates, pre-moistened with cold 30 mM TRIS-HCl. The filter plates are suctioned dry with vacuum and immediately washed 3× with cold 30 mM TRIS-HCl. The plates are then punched out and the amount of receptor-ligand complex is determined by liquid scintillation counting using 4 ml of Ready Protein Plus™ liquid scintillation cocktail.
IC50 values (defined as the concentration of test compound required to decrease [^3H]-aldosterone binding by 50%/o) are then determined.

glucocorticoid receptor = target: T2, glucocorticoid receptor (Homo sapiens, UniProt P04150); experiment: Glucocorticoid Receptor Binding Assay ([3H]-dexamethasone, A549 cell extract); settings: [3H]-dexamethasone binding, read-out: GR Ki
T2 construct: containing 50-200 ug of A549 cell extract and 1.86 nM [^3H]-dexamethasone; host or cells: A549 human lung epithelial cells (sonicated cell extract)
T2 sequence (P04150 1-777): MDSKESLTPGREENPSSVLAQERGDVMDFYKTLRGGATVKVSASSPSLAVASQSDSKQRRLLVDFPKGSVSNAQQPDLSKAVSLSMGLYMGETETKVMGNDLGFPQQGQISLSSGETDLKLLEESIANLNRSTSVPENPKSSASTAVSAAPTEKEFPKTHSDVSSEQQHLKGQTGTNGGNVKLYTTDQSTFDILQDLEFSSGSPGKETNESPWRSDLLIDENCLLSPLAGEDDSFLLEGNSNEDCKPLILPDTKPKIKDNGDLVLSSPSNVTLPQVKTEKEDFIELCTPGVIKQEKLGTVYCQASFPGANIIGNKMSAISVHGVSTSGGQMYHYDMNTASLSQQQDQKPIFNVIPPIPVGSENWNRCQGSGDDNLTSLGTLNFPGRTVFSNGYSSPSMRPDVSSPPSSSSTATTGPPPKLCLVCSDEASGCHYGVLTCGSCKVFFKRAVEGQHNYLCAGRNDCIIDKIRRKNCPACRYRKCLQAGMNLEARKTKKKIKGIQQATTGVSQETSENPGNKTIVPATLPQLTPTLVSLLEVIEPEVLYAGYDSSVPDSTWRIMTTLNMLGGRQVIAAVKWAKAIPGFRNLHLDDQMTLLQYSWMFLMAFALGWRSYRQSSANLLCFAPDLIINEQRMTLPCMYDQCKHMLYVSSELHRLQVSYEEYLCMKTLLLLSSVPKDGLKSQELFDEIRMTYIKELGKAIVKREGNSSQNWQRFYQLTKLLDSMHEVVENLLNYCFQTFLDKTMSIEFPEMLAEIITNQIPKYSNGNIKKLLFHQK
Experimental: as §1
A549 human lung epithelial cells (ATCC) are grown at a scale where gram quantity cell pellets are obtained. Harvested cell pellets are washed twice in cold phosphate buffered saline, centrifuged, and resuspended in cold assay binding buffer. The assay binding buffer consists of 10% glycerol, 50 mM Tris-HCl (pH7.2), 75 mM sodium chloride, 1.5 mM magnesium chloride, 1.5 mM EDTA, and 10 mM sodium molybdate. Cell suspensions were lysed via sonication, centrifuged, and the “extract” supernatant is snap frozen and stored at −80 C until needed.
GR binding assays are performed in a final volume of 140 ul containing 50-200 ug of A549 cell extract and 1.86 nM [^3H]-dexamethasone (Amersham) plus varying concentrations of test compound or vehicle. Briefly, assays are prepared at RT in 96-well Fisher 3356 plates, each well containing 100 ul of A549 cell extract, 20 ul of [^3H]-dexamethasone, and 20 ul of test compound/vehicle. Incubations are carried out at 4 degrees Celsius for 16 hours. After incubation, 70 ul of 3× dextran-coated charcoal solution is added to each reaction, mixed, and incubated for 8 minutes at RT. 3×-dextran-coated charcoal solution consists of 250 ml assay binding buffer, 3.75 g Norit A charcoal (Sigma), and 1.25 g dextran T-70 (Amersham). Charcoal/unbound radioligand complexes are removed by centrifugation of the plate and 140 ul of supernatant from each well is transferred to another 96 well Optiplate (Packard Instruments). 200 ul of Microscint-20 scinillant (Packard Instruments) is added to each well and amount of receptor bound radioligand is determined using Packard Instruments TopCount instrument.

Structure (SMILES) | Ki (human MR) | Ki (glucocorticoid receptor)
Oc1ccc(C=C2c3ccccc3CCc3c(Cl)cccc32)cc1 (mixture of isomers) [Example 212, 4-(1-Chloro-10,11-dihydro-dibenzo[a,d]cyclohepten-5-ylidenemethyl)-phenol] | < 500 nM | < 1000 nM
CS(=O)(=O)Nc1cccc(C=C2c3ccccc3CCc3ccc(F)cc32)c1 (mixture of isomers) [Example 214, N-[3-(3-Fluoro-10,11-dihydro-dibenzo[a,d]cyclohepten-5-ylidenemethyl)-phenyl]-methanesulfonamide] | < 500 nM | < 500 nM
Oc1cccc(C=C2c3ccccc3CCc3ccc(F)cc32)c1 (mixture of isomers) [Example 215, 3-(3-Fluoro-10,11-dihydro-dibenzo[a,d]cyclohepten-5-ylidenemethyl)-phenol] | < 500 nM | < 500 nM
Nc1cccc(C=C2c3ccccc3CCc3cc(Cl)ccc32)c1 (mixture of isomers) [Example 289, 3-(2-Chloro-10,11-dihydro-dibenzo[a,d]cyclohepten-5-ylidenemethyl)-phenylamine] | < 500 nM | < 1000 nM
O=C1Nc2ccccc2C(=Cc2cccc(Cl)c2)c2ccccc21 (mixture of isomers) [Example 649] | < 500 nM | < 10000 nM
O=C1Nc2ccc(Cl)cc2C(=Cc2cccc(Cl)c2)c2ccccc21 (mixture of isomers) [Example 655] | < 500 nM | < 500 nM
CS(=O)(=O)Nc1cccc(CC2c3ccccc3CCc3cc(Cl)ccc32)c1 (racemic) [Example 207, N-[3-(2-Chloro-10,11-dihydro-5H-dibenzo[a,d]cycloheptenylmethyl)-phenyl]-methanesulfonamide] | < 500 nM | < 500 nM
COc1ccc2c(c1)COc1ccccc1C2C(C)c1cccc(NS(C)(=O)=O)c1 (racemic) [Example 752, N-{3-[1-(8-Methoxy-6,11-dihydro-dibenzo[b,e]oxepin-11-yl)-ethyl]-phenyl}-methanesulfonamide] | < 500 nM | < 500 nM
Oc1cc(C=C2c3ccccc3CCc3c(Cl)cccc32)ccc1Cl [173(a), 2-Chloro-5-(1-chloro-10,11-dihydro-dibenzo[a,d]cyclohepten-5-ylidenemethyl)-phenol] | < 500 nM | < 500 nM
Oc1cc(C=C2c3ccccc3CCc3c(Cl)cccc32)ccc1Cl [173(b), 2-Chloro-5-(1-chloro-10,11-dihydro-dibenzo[a,d]cyclohepten-5-ylidenemethyl)-phenol] | < 500 nM | < 10000 nM
Oc1cccc(C=C2c3ccccc3CCc3cc(Cl)ccc32)c1 [181(a), 3-(2-Chloro-10,11-dihydro-dibenzo[a,d]cyclohepten-5-ylidenemethyl)-phenol] | < 500 nM | < 500 nM
CS(=O)(=O)Nc1cccc(C=C2c3ccccc3CCc3c(F)cccc32)c1 [184(a), N-[3-(1-Fluoro-10,11-dihydro-dibenzo[a,d]cyclohepten-5-ylidenemethyl)-phenyl]-methanesulfonamide] | < 500 nM | < 500 nM
Oc1cccc(C=C2c3ccccc3CCc3c(F)cccc32)c1 [185(a), 3-(1-Fluoro-10,11-dihydro-dibenzo[a,d]cyclohepten-5-ylidenemethyl)-phenol] | < 500 nM | < 500 nM
Oc1cccc(C=C2c3ccccc3CCc3c(F)cccc32)c1 [185(b), 3-(1-Fluoro-10,11-dihydro-dibenzo[a,d]cyclohepten-5-ylidenemethyl)-phenol] | < 500 nM | < 1000 nM
CS(=O)(=O)Nc1cccc(C=C2c3ccccc3CCc3ccc(Cl)cc32)c1 [188(a), N-[3-(3-Chloro-10,11-dihydro-dibenzo[a,d]cyclohepten-5-ylidenemethyl)-phenyl]-methanesulfonamide] | < 500 nM | < 500 nM
Oc1cccc(C=C2c3ccccc3CCc3cc(OCCN4CCOCC4)ccc32)c1 [195(a), 3-[2-(2-Morpholin-4-yl-ethoxy)-10,11-dihydro-dibenzo[a,d]cyclohepten-5-ylidenemethyl]-phenol] | < 500 nM | < 1000 nM
CS(=O)(=O)Nc1cccc(C=C2c3ccccc3CCc3c2ccc(Cl)c3Cl)c1 [197(a), N-[3-(1,2-Dichloro-10,11-dihydro-dibenzo[a,d]cyclohepten-5-ylidenemethyl)-phenyl]-methanesulfonamide] | < 500 nM | < 500 nM

From patent US20060063759A1, “Tricyclic steroid hormone nuclear receptor modulators” (priority 2002, published 2006)
